Measured values from patent US4954358A, “Multiplication inhibitor for Bacillus cereus” (priority 1986, dated 1990).

Experiments:
Assay type in all cases: cell-based
Bacillus cereus [1] = test: MIC, agar plate dilution method on standard nutrient agar; settings: for minimum growth inhibiting concentration (MIC): Bacillus cereus spores, 37° C., 24 hours, judged with the naked eye; for growth inhibition effect against Bacillus cereus: standard nutrient agar, result in words
Description: (§1) The minimum growth inhibiting concentration (MIC) of various antibacterial substances against Bacillus cereus and other general putrefying bacteria were measured by using a standard nutrient agar (made by Difco Corp.) and by introducing the agar plate dilution method.
(§2) On a plain culture medium on which chemicals were placed in a stepwise dilution system the liquid spore suspension (×10^8 /ml) with respect to the strains of the genus of Bacillus and the respective pre-culture mediums (37° C., 24 hours) provided by Brain Heart Infusion Broth with respect to the other strains were smeared.

Bacillus coaglans = test: as above; settings: Bacillus coaglans spores, 37° C., 24 hours
Description: as §1, §2

Bacillus licheniformis = test: as above; settings: Bacillus licheniformis spores, 37° C., 24 hours
Description: as §1, §2

Bacillus megaterium = test: as above; settings: Bacillus megaterium spores, 37° C., 24 hours
Description: as §1, §2

Bacillus subtilis = test: as above; settings: Bacillus subtilis spores, 37° C., 24 hours
Description: as §1, §2

Lactobacillus casei = test: as above; settings: 37° C., 24 hours
Description: as §1, §2

[2] = test system: Leuconostoc mesenteroides; test: as above; settings: 37° C., 24 hours
Description: as §1, §2

Staphylococcus aureus = test: as above; settings: 37° C., 24 hours
Description: as §1, §2

Streptococcus faecalis = test: as above; settings: 37° C., 24 hours
Description: as §1, §2

total viable bacteria = test: Keeping test, cooked rice not contaminated with Bacillus cereus, 30° C.; settings: time without smell of putrefaction or change in outward appearance
Bacillus cereus [3] = test: Keeping test, cooked rice contaminated with Bacillus cereus, 30° C.; settings: for Effective keeping time: cooked rice contaminated with Bacillus cereus, 30° C., time until Bacillus cereus 10^6 /g or more; for effectiveness against Bacillus cereus in tests with actual food: cooked rice (Example 4), result in words
Description: Two hundred grams of polished rice was washed in water, and with the addition of 240 ml of water, it was cooked for approximately 15 minutes in an electric rice-cooker which was of the type in public use. The rice cooked was left standing in hot steam for 10 minutes, and then left to cool off at room temperature. On the other hand, a suspension of spores of Bacillus cereus was prepared and added to the cooked rice, which had cooled off, in the proportion of n×10^2 to 1 g final specimen. Specimens were prepared by mixing the rice evenly with addition of the spores.
The cooked rice was put in a plastic case for each 120 g and its temperature was maintained at 30° C., and the number of total viable bacteria and the number of Bacillus cereus were measured periodically using a standard agar culture medium (37° C., 48 hours) and a polymyxin BCW agar culture medium with 5% egg yellow (37° C., 24 hours) for each In parallel with this measurement of the bacterium number, the specimens were examined concerning the outward appearance and the possible smell of putrefaction.
Each of the chemicals shown in Table 4 was dissolved in 20 ml of water to form an aqueous solution of a set concentration.

[4] = test system: total viable active bacteria; test: Keeping test, potato salad not contaminated with Bacillus cereus, 30° C.; settings: time without smell of putrefaction or change in outward appearance
Description: (§3) Potato salad was prepared according to the following recipe.
(§4) Mayonnaise in the proportion of 10% by weight against the above materials was combined with various chemicals of prescribed concentrations listed in Table 5 and these were evenly mixed with the above food materials. Mixed specimens were prepared by inoculating Bacillus cereus in the form of a spore suspension in such a way as to make the bacterial number n×10^2 per gram on the final specimen.
(§5) The potato salad thus prepared was packed into plastic containers and left standing at 30° C. The bacterial number of total viable active bacteria and that of Bacillus cereus were measured with respect to the changes with time by the same method as in Example 1.
(§6) The effective keeping time and the figures in the upper and the lower spaces for each chemical in the list are used in the same meanings as in Example 4.

Bacillus cereus [5] = test: Keeping test, potato salad contaminated with Bacillus cereus, 30° C.; settings: time until Bacillus cereus 10^6 /g or more
Description: as §3, §4
The same Bacillus cereus as in Example 1 was employed for this example.
as §5, §6

Molecule | minimum growth inhibiting concentration (MIC) (Bacillus cereus [1]) | growth inhibition effect against Bacillus cereus (Bacillus cereus [1]) | minimum growth inhibiting concentration (MIC) (Bacillus coaglans) | minimum growth inhibiting concentration (MIC) (Bacillus licheniformis) | minimum growth inhibiting concentration (MIC) (Bacillus megaterium) | minimum growth inhibiting concentration (MIC) (Bacillus subtilis) | minimum growth inhibiting concentration (MIC) (Lactobacillus casei) | minimum growth inhibiting concentration (MIC) [2] | minimum growth inhibiting concentration (MIC) (Staphylococcus aureus) | minimum growth inhibiting concentration (MIC) (Streptococcus faecalis) | further results
CCCCCCCCCC(=O)OCC(O)CO (stereo not drawn) [Capric acid monoglyceride] | 0.01% | showed effectiveness | 0.01% | 0.01% | 0.01% | 0.01% | – | – | – | – | minimum growth inhibiting concentration (MIC) (Lactobacillus casei; in %): 0.025; minimum growth inhibiting concentration (MIC) ([2]; in %): 0.025; minimum growth inhibiting concentration (MIC) (Staphylococcus aureus; in %): 0.025; minimum growth inhibiting concentration (MIC) (Streptococcus faecalis; in %): 0.025; Effective keeping time (total viable bacteria; chemical 0.01% by weight): 35.0 h; Effective keeping time (Bacillus cereus [3]; chemical 0.01% by weight): 8.4 h
CCO [Ethyl alcohol] | – | – | – | – | – | – | – | – | – | – | Effective keeping time ([4]; chemical 1% by weight): 29.2 h; Effective keeping time (Bacillus cereus [5]; chemical 1% by weight): 10.0 h
NCC(=O)O [Glycine] | > 8% | – | 1% | 2% | 1% | 1% | 4% | 4% | 5% | 4% | Effective keeping time (total viable bacteria; chemical 1% by weight): 110.0 h; effectiveness against Bacillus cereus in tests with actual food (Bacillus cereus [3]): proved effective, though the effect is of no practical value; Effective keeping time (Bacillus cereus [3]; chemical 1% by weight): 10.1 h; Effective keeping time ([4]; chemical 1% by weight): 36.0 h; Effective keeping time (Bacillus cereus [5]; chemical 1% by weight): 12.0 h
CCCCCCCCCCCC(=O)OCC(O)CO (stereo not drawn) [Lauric acid monoglyceride] | – | showed effectiveness | – | – | – | – | 0.01% | 0.01% | 0.01% | 0.01% | minimum growth inhibiting concentration (MIC) (Bacillus cereus [1]; in %): 0.0025; minimum growth inhibiting concentration (MIC) (Bacillus coaglans; in %): 0.0025; minimum growth inhibiting concentration (MIC) (Bacillus licheniformis; in %): 0.0025; minimum growth inhibiting concentration (MIC) (Bacillus megaterium; in %): 0.0025; minimum growth inhibiting concentration (MIC) (Bacillus subtilis; in %): 0.0025; Effective keeping time (total viable bacteria; chemical 0.01% by weight): 40.0 h; Effective keeping time (Bacillus cereus [3]; chemical 0.01% by weight): 8.2 h; Effective keeping time ([4]; chemical 0.01% by weight): 22.0 h; Effective keeping time (Bacillus cereus [5]; chemical 0.01% by weight): 11.5 h
CC(=O)[O-].[Na+] [Sodium acetate] | > 0.5% | – | > 0.5% | > 0.5% | > 0.5% | > 0.5% | > 0.5% | > 0.5% | > 0.5% | > 0.5% | Effective keeping time (total viable bacteria; chemical 0.4% by weight): 43.0 h; effectiveness against Bacillus cereus in tests with actual food (Bacillus cereus [3]): proved effective, though the effect is of no practical value; Effective keeping time (Bacillus cereus [3]; chemical 0.4% by weight): 11.5 h; Effective keeping time ([4]; chemical 0.4% by weight): 27.0 h; Effective keeping time (Bacillus cereus [5]; chemical 0.4% by weight): 10.0 h
O=P1([O-])OP(=O)([O-])OP(=O)([O-])OP(=O)([O-])OP(=O)([O-])OP(=O)([O-])O1.[Na+].[Na+].[Na+].[Na+].[Na+].[Na+] [Sodium hexametaphosphate] | – | showed effectiveness | – | – | – | – | – | – | – | – | minimum growth inhibiting concentration (MIC) (Bacillus cereus [1]; in %): 0.125; minimum growth inhibiting concentration (MIC) (Bacillus coaglans; in %): 0.125; minimum growth inhibiting concentration (MIC) (Bacillus licheniformis; in %): 0.125; minimum growth inhibiting concentration (MIC) (Bacillus megaterium; in %): 0.125; minimum growth inhibiting concentration (MIC) (Bacillus subtilis; in %): 0.125; minimum growth inhibiting concentration (MIC) (Lactobacillus casei; in %): 0.125; minimum growth inhibiting concentration (MIC) ([2]; in %): 0.125; minimum growth inhibiting concentration (MIC) (Staphylococcus aureus; in %): 0.125; minimum growth inhibiting concentration (MIC) (Streptococcus faecalis; in %): 0.125; Effective keeping time (total viable bacteria; chemical 0.5% by weight): 35.0 h; Effective keeping time (Bacillus cereus [3]; chemical 0.5% by weight): 9.2 h
O=P([O-])([O-])OP(=O)([O-])[O-].[Na+].[Na+].[Na+].[Na+] [Sodium pyrophosphate] | > 0.5% | – | > 0.5% | > 0.5% | > 0.5% | > 0.5% | > 0.5% | > 0.5% | > 0.5% | > 0.5% | Effective keeping time (total viable bacteria; chemical 0.5% by weight): 35.0 h; Effective keeping time (Bacillus cereus [3]; chemical 0.5% by weight): 8.6 h
C/C=C/C=C/C(=O)O [Sorbic acid] | – | – | – | – | – | – | – | – | – | – | Effective keeping time ([4]; chemical 0.1% by weight): 96.0 h; Effective keeping time (Bacillus cereus [5]; chemical 0.1% by weight): 38.6 h
O=C([O-])c1ccccc1.[Na+] [sodium benzoate] | – | – | – | – | – | – | – | – | – | – | Effective keeping time ([4]; chemical 0.1% by weight): 92.0 h; Effective keeping time (Bacillus cereus [5]; chemical 0.1% by weight): 36.2 h
Caprylic acid monoglyceride | 0.05% | showed effectiveness | 0.05% | 0.05% | 0.05% | 0.05% | 0.05% | 0.05% | 0.1% | 0.05% | Effective keeping time (total viable bacteria; chemical 0.05% by weight): 35.0 h; Effective keeping time (Bacillus cereus [3]; chemical 0.05% by weight): 8.6 h
Lysozyme | > 0.05% | – | 0.05% | > 0.05% | 0.05% | 0.02% | > 0.05% | > 0.05% | > 0.05% | > 0.05% | Effective keeping time (total viable bacteria; chemical 0.05% by weight): 35.0 h; Effective keeping time (Bacillus cereus [3]; chemical 0.05% by weight): 8.5 h
Sodium polyphosphate | 0.5% | showed effectiveness | 0.5% | – | – | – | 0.5% | 0.5% | 0.5% | 0.5% | minimum growth inhibiting concentration (MIC) (Bacillus licheniformis; in %): 0.025; minimum growth inhibiting concentration (MIC) (Bacillus megaterium; in %): 0.025; minimum growth inhibiting concentration (MIC) (Bacillus subtilis; in %): 0.025; Effective keeping time (total viable bacteria; chemical 0.5% by weight): 35.0 h; Effective keeping time (Bacillus cereus [3]; chemical 0.5% by weight): 9.0 h
protamine | – | showed effectiveness | – | – | – | – | – | – | – | – | effectiveness against Bacillus cereus in tests with actual food (Bacillus cereus [3]): only protamine has proved to be effective
protamine sulfate | 0.1% | – | 0.05% | 0.05% | 0.05% | 0.05% | 0.1% | 0.1% | 0.05% | 0.1% | –
